Assay results published in US20220125764A1, “PHARMACEUTICAL COMPOSITION COMPRISING BENZIMIDAZOLE DERIVATIVE COMPOUND” (HK INNO.N CORPORATION, priority 2019, published 2022).

Columns and labels:
[1] = tested on: erosive gastroesophageal reflux disease; assay: Double-blinded, randomized, active-controlled maintenance therapy trial in subjects with treated erosive gastroesophageal reflux disease (Example 2); type: in vivo, human; settings: for subjects with erosion observed by upper gastrointestinal endoscopy: test group (tegoprazan 25 mg, at least 17 subjects) and control group (lansoprazole 15 mg) pooled, total 37 subjects; for symptom evaluation: symptoms of heartburn and gastric acid reflux while taking the drug: all the subjects of the group, once a day for four weeks, tegoprazan 25 mg, lansoprazole 15 mg
Experimental: A double-blinded, randomized and active controlled study was designed to identify an effect of 25 mg of tegoprazan on maintenance therapy for gastroesophageal reflux disease.
(2) a person who is diagnosed with erosive gastroesophageal reflux disease (LA grade A-D) through upper gastrointestinal endoscopy within 12 weeks based on random group allocation (visit 2);
(3) a person who is identified as having erosive gastroesophageal reflux disease treated through upper gastrointestinal endoscopy within seven days based on random group allocation (visit 2) (a person who is identified the cure of erosion after administration of a standard dose of therapeutic agents for erosive gastroesophageal reflux disease (PPI, P-CAB, etc.) for 4-8 weeks due to a typical symptom of gastroesophageal reflux disease and erosive gastroesophageal reflux disease);
The clinical trial was performed in a double-blinded, randomized, active-controlled and multi-center clinical trial manner, and the clinical trial may be schematized as shown in FIG. 1.
The subjects were classified using stratified block randomization based on LA grades identified by upper gastrointestinal endoscopy performed within 12 weeks before the random allocation on visit (visit 2). Each group was administered with the drug for 24 weeks.
As identified in the table above, the test group was orally dosed with 25 mg of tegoprazan tablet (Preparation Example 1)/lansoprazole 15 mg placebo (Preparation Example 4), and the control group was orally dosed with 25 mg of tegoprazan placebo (Preparation Example 2)/lansoprazole 15 mg capsule (Preparation Example 3).
The subjects randomly allocated to each group took the prescribed clinical trial drug once a day at a regular time from the first day of prescription. A diary on the trial subjects was kept from the start day of taking the clinical trial drug.
During a visit in 4 weeks (visit 3), 12 weeks (visit 4) and 24 weeks (visit 5) later, subjects paid a visit on an empty stomach without taking the clinical trial drug, then received a scheduled test, then were newly prescribed the same drug, then took it from the very day, then received a test in their visit in 24 weeks (visit 5) later, and then stopped the administration.
In four weeks (visit 3) after administering the clinical trial drug, endoscopy was not performed, but clinical laboratory tests (hematologic test, blood chemistry test, blood coagulation test, urine test, hepatitis test, etc.) and evaluation of symptoms were performed. In 12 weeks (visit 4) and 24 weeks (visit 5) later, it was checked whether erosion recurred or not through the upper gastrointestinal endoscopy, and the clinical laboratory test, evaluation of symptoms and the like were performed. Clinical trial subjects took the clinical trial drug for up to 24 weeks and then entered into a safety follow-up (f/u) period, in which the f/u was performed (by phone or visit) in two weeks after the last administration.
(1) Endoscopic remission: No recurrence of erosion (LA grade A-D) observed through upper gastrointestinal endoscopy during a maintenance period (12 weeks)
(1) Rate of subjects without main symptoms (heartburn and gastric acid reflux)
Rate of subjects without main symptoms=(Subjects without main symptoms expressed/Number of clinical trial subjects whose symptoms were evaluated during a maintenance period after administration of the clinical trial drug)×100

[2] = tested on: gastric pH; assay: 24-hour gastric pH monitoring after repeated oral dosing in healthy male volunteers (Example 1); type: in vivo, human; settings: for HTR > pH4 (%) Mean: time for which pH of gastric fluid exceeds and maintains 4 based on 24 hours: healthy male volunteers
Experimental: Tegoprazan and esomeprazole were orally administered for 7 days as shown in table 1 (an open-label, active controlled, parallel design and repeated dose).
There occurred neither serious adverse reactions nor dropouts caused thereby while this clinical trial was in progress. With regard to a gastric pH, a time for which the gastric pH exceeds 4 was evaluated during an observation period for the gastric pH.
After evaluating pharmacokinetic parameters, the time (%) for which a pH of gastric fluid exceeds and maintains 4 based on 24 hours is the same as shown in the following table 2.

| SMILES | subjects with erosion observed by upper gastrointestinal endoscopy ([1]; 12 weeks) | symptom evaluation: symptoms of heartburn and gastric acid reflux while taking the drug [1] | HTR > pH4 (%) Mean: time for which pH of gastric fluid exceeds and maintains 4 based on 24 hours ([2]; Day 1, 25 mg once a day orally) [%] | HTR > pH4 (%) Mean: time for which pH of gastric fluid exceeds and maintains 4 based on 24 hours ([2]; Day 7, 25 mg once a day orally for seven days) [%] | average of time for which the gastric pH exceeds 4 (Time pH>4, %) ([2]; from day 1 after the administration, 25 mg, observed for 24 hours) | maintenance effect after four weeks of administration ([1]; 25 mg once a day, 4 weeks) | maintenance effect (endoscopic remission maintenance) after twelve weeks of administration ([1]; 25 mg once a day, 12 weeks) | inhibition of the recurrence of gastroesophageal reflux disease ([1]; 25 mg, conclusion from 12-week endoscopy) |
| --- | --- | --- | --- | --- | --- | --- | --- | --- |
| Cc1c(OCC(F)(F)F)ccnc1C[S+]([O-])c1nc2ccccc2[nH]1 (stereo not shown) [lansoprazole, reference compound] | only one subject among the total 37 subjects | had not experienced symptoms of heartburn and gastric acid reflux |  |  |  |  |  |  |
| Cc1nc2cc(C(=O)N(C)C)cc(O[C@H]3CCOc4cc(F)cc(F)c43)c2[nH]1 [tegoprazan, (S)-4-(5,7-difluorochroman-4-yloxy)-N,N,2-trimethyl-1H-benzo[d]imidazole-6-carboxamide] | only one subject among the total 37 subjects | had not experienced symptoms of heartburn and gastric acid reflux | 40.6 | 56.6 | at least 40% | demonstrated a maintenance effect | A maintenance effect was observed | effectively inhibits the recurrence of gastroesophageal reflux disease |
